The term pIC50 denotes −log10 of the IC50, conventionally taken in molar units.

The source of these data is US20260356824A1, “COMPOUNDS FOR TREATING FIBROTIC DISEASES” (Meta-Immue Inc., priority 2023, published 2026).

pIC50: −log10 of the molar value.

Experiment [1] deals with T1, hLPAR1 (Homo sapiens, UniProt Q92633).
T1 construct: expressed in transfected cells
Put plainly: Ca2+ Flux Assay (B103 cells stably expressing hLPAR1). The experiment is classed as cell-based. The settings on record: LPA-induced calcium release, Fura-2 AM, compound 20 min at RT. The procedure: B103 cells stably expressing hLPAR1 were seeded at a density of 1.0×10^5 cells per well in clear flat-bottom black 96-well plates and incubated overnight in complete media. The following day, the cells were pre-incubated in serum-free media for 2 hours prior to ensure cellular equilibration. For the loading a calcium-sensitive fluorescent dye, the cells were treated with a concentration of 5 μM Fura-2 AM dye (Sigma, F1225) in Hank's buffered salt solution (HBSS) supplemented with 20 mM HEPES, […], and 0.3% fatty-acid-free bovine serum albumin for 40 minutes at room temperature (RT). Test compounds, prepared in DMSO, were then added to each well and incubated for 20 minutes at RT. To induce calcium release, a concentration of […] in HBSS supplemented with 20 mM HEPES, and 0.3% fatty-acid-free bovine serum albumin was introduced. Intracellular calcium mobilization was subsequently quantified by monitoring the fluorescence intensity using the Spark® multimode microplate reader (TECAN).
A general note: Calcium assays in cells follow changes in intracellular calcium, usually with a dye or a luminescent sensor.

The test system of experiment [2] is A2058 cells. Put plainly: Chemotaxis Assay (LPA-induced migration of A2058 cells). The experiment is classed as cell-based. The settings on record: Homo sapiens, 4 to 8 hours, crystal violet 590 nm. The procedure: For monitoring the migration of cells, Neuroprobe ChemoTx® System plates ([…], 5.7 mm diameter sites; Gaithersburg, MD, USA) were utilized. To induce cell migrations, a concentration of […] or vehicle in DMEM were loaded to the bottom chamber. A total of 15,000 A2058 cells, which were starved for 24 hr following treated with test compounds or vehicle, were then applied to the upper membrane coated with 0.001% fibronectin. The plate was incubated for 4 to 8 hours to allow cell migration. Following incubation, the plate was dissembled, and the migrated cells were visualized by crystal violet staining. The stained area with crystal violet was quantified by measuring the absorbance at 590 nm and the relative percentage of the control was calculated.

T1 sequence (Q92633 whole entry): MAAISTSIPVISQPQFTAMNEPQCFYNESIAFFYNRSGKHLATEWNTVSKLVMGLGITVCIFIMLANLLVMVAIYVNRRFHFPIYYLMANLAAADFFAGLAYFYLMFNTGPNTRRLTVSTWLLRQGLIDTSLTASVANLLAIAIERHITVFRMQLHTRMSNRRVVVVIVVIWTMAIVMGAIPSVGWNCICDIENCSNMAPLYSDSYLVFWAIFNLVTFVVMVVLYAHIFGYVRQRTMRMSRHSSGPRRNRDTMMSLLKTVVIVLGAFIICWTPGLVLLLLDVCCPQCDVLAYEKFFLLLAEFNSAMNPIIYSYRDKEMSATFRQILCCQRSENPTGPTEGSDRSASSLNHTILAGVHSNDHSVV

Take `COc1cc(C2(C(=O)NS(=O)(=O)CCC(=O)O)CC2)ccc1N1CCC(c2onc(C)c2NC(=O)O[C@H](C)c2ccccc2)CC1` [Compound 1, 3-[[1-[3-methoxy-4-[4-[3-methyl-4-[[(1R)-1-phenylethoxy]carbonylamino]isoxazol-5-yl]-1-piperidyl]phenyl]cyclopropanecarbonyl]sulfamoyl]propanoic acid]: the pIC50 in experiment [1] is greater than 8.00; in experiment [2] it was greater than 7.00.
For `Cc1ccccc1[C@@H](C)OC(=O)Nc1c(C)nsc1C1CCN(c2ccc(C3(C(=O)O)CC3)cc2)CC1` [Compound 36] the same measures were greater than 8.00 and greater than 7.00.
`Cc1noc(C2CCN(c3ccc(C4(C(=O)O)CC4)cc3)CC2)c1NC(=O)OCC1CC1` [Compound 5]: the values for the pIC50 in experiment [1] and in experiment [2] were 6.70 to 8.00 and 5.30 to 6.30, respectively.
Taken in the same sequence, the figures for `C[C@@H](OC(=O)Nc1c(C2CCN(c3ccc(C4(C(=O)NS(=O)(=O)C5(C(=O)O)CC5)CC4)cc3)CC2)nnn1C)c1ccccc1` [Compound 57, 1-[[1-[4-[4-[1-methyl-5-[[(1R)-1-phenylethoxy]carbonylamino]triazol-4-yl]-1-piperidyl]phenyl]cyclopropanecarbonyl]sulfamoyl]cyclopropanecarboxylic acid] were greater than 8.00 and greater than 7.00.
Taken in the same sequence, the figures for `C[C@@H](OC(=O)Nc1c(C2CCN(c3ccc(C4(C(=O)NS(=O)(=O)C(C)(C)C(=O)O)CC4)cc3)CC2)nnn1C)c1ccccc1` [Compound 56] were greater than 8.00 and 6.30 to 7.00.
As to `Cc1noc(C2CCN(c3ccc(C4(C(=O)NS(=O)(=O)C5(CC(=O)O)CC5)CC4)cc3)CC2)c1NC(=O)O[C@H](C)c1ccccc1` [Compound 76], the pIC50 in experiment [1] was greater than 8.00; in experiment [2], 6.30 to 7.00.
In the case of `COC(=O)C(C)(C)S(=O)(=O)NC(=O)C1(c2ccc(N3CCC(c4onc(C)c4NC(=O)O[C@H](C)c4ccccc4)CC3)cc2)CC1` [Compound 69, methyl 2-methyl-2-[[1-[4-[4-[3-methyl-4-[[(1R)-1-phenylethoxy]carbonylamino]isoxazol-5-yl]-1-piperidyl]phenyl]cyclopropanecarbonyl]sulfamoyl]propanoate], the negative logarithm of the IC50 (pIC50) was greater than 8.00 in experiment [1] and greater than 7.00 in experiment [2].
Consider `Cc1noc(C2CC3(C2)CN(c2ccc(C4(C(=O)NS(=O)(=O)CCCO)CC4)cc2)C3)c1NC(=O)O[C@H](C)c1ccccc1` [Compound 52], for which the pIC50 in experiment [1] is greater than 8.00; in experiment [2] it was greater than 7.00.
As to `Cc1noc(C2CCN(c3ccc(C4(C(=O)NS(=O)(=O)C5(C(N)=O)CC5)CC4)cc3)CC2)c1NC(=O)O[C@H](C)c1ccccc1` [Compound 73, (1R)-1-phenylethyl N-(5-{1-[4-(1-{[(1-carbamoylcyclopropyl)sulfonyl]carbamoyl}cyclopropyl)phenyl]piperidin-4-yl}-3-methyl-1,2-oxazol-4-yl)carbamate], the results for the pIC50 in experiment [1] and in experiment [2] were greater than 8.00 and greater than 7.00, respectively.
As to `Cc1noc(C2CCN(c3ccc(C4(C(=O)NS(=O)(=O)CC5(C(=O)O)CC5)CC4)cc3)CC2)c1NC(=O)O[C@H](C)c1ccccc1` [Compound 82, 1-[({[1-(4-{4-[3-methyl-4-({[(1R)-1-phenylethoxy]carbonyl}amino)-1,2-oxazol-5-yl]piperidin-1-yl}phenyl)cyclopropyl]formamido}sulfonyl)methyl]cyclopropane-1-carboxylic acid], the results for the pIC50 in experiment [1] and in experiment [2] were greater than 8.00 and greater than 7.00, respectively.
In the case of `Cc1noc(C2CCN(c3ccc(C4(C(=O)NS(C)(=O)=O)CC4)cc3)CC2)c1NC(=O)O[C@H](C)c1ccccc1Cl` [Compound 11], the results for the pIC50 in experiment [1] and in experiment [2] were 6.70 to 8.00 and 6.30 to 7.00, respectively.
For `Cc1nnn(C2CCN(c3ccc(C4(C(=O)O)CC4)cc3)CC2)c1NC(=O)O[C@H](C)c1ccccc1` [Compound 53] the same measures were greater than 8.00 and 5.30 to 6.30.
Consider `Cc1ccccc1[C@@H](C)OC(=O)Nc1c(C)noc1C1CC2(C1)CN(c1ccc(C3(C(=O)NS(=O)(=O)CCC(=O)O)CC3)cc1)C2` [Compound 31, 3-({[1-(4-{6-[3-methyl-4-({[(1R)-1-(2-methylphenyl)ethoxy]carbonyl}amino)-1,2-oxazol-5-yl]-2-azaspiro[3.3]heptan-2-yl}phenyl)cyclopropyl]formamido}sulfonyl)propanoic acid], for which the pIC50 was 6.70 to 8.00 in experiment [1] and greater than 7.00 in experiment [2].
In the case of `Cc1noc(C2CCN(c3ccc(C4(C(=O)NS(=O)(=O)C5(CO)CC5)CC4)cc3)CC2)c1NC(=O)O[C@H](C)c1ccccc1` [Compound 77], the values for the negative-log IC50 (pIC50) in experiment [1] and in experiment [2] were greater than 8.00 and greater than 7.00, respectively.
With `C=CCS(=O)(=O)NC(=O)C1(c2ccc(N3CCC(c4onc(C)c4NC(=O)O[C@H](C)c4ccccc4)CC3)cc2)CC1` [Compound 2, (1R)-1-phenylethyl N-{3-methyl-5-[1-(4-{1-[(prop-2-ene-1-sulfonyl)carbamoyl]cyclopropyl}phenyl)piperidin-4-yl]-1,2-oxazol-4-yl}carbamate], the figures for the pIC50 in experiment [1] and in experiment [2] were greater than 8.00 and greater than 7.00, respectively.
For `Cc1noc(C2CCN(c3ccc(C4(C(=O)O)CC4)cc3)CC2)c1Nc1cccc(-c2ccccc2)n1` [Compound 49] the same measures were 6.70 to 8.00 and 5.30 to 6.30.
On to `Cc1cc(NC(=O)O[C@H](C)c2ccccc2)c(C2CCN(c3ccc(C4(C(=O)O)CC4)cc3)CC2)s1` [Compound 91], for which the values for the pIC50 in experiment [1] and in experiment [2] were no more than 5.52 and 6.30 to 7.00, respectively.
With `C[C@@H](OC(=O)Nc1c(C2CCN(c3ccc(C4(C(=O)O)CC4)cc3)CC2)nnn1C)c1ccccc1Cl` [Compound 27, 1-(4-{4-[5-({[(1R)-1-(2-chlorophenyl)ethoxy]carbonyl}amino)-1-methyl-1H-1,2,3-triazol-4-yl]piperidin-1-yl}phenyl)cyclopropane-1-carboxylic acid], the pIC50 in experiment [1] is greater than 8.00; in experiment [2] it was greater than 7.00.
Regarding `Cc1noc(C2CC3(C2)CN(c2ccc(C4(C(=O)NS(=O)(=O)CCC(=O)O)CC4)cc2)C3)c1NC(=O)O[C@H](C)c1ccccc1` [Compound 50], the pIC50 in experiment [1] is greater than 8.00; in experiment [2], greater than 7.00.
Taken in the same sequence, the figures for `Cc1noc(C2CCN(c3ccc(C4(c5nnn[nH]5)CC4)cc3)CC2)c1NC(=O)O[C@H](C)c1ccccc1` [Compound 88, [(1R)-1-phenylethyl]N-[3-methyl-5-[1-[4-[1-(1H-tetrazol-5-yl)cyclopropyl]phenyl]-4-piperidyl]isoxazol-4-yl]carbamate] were greater than 8.00 and greater than 7.00.
Taken in the same sequence, the figures for `C[C@@H](OC(=O)Nc1c(C2CCN(c3ccc(C4(C(=O)NS(=O)(=O)CC5(C(=O)O)CC5)CC4)cc3)CC2)nnn1C)c1ccccc1Cl` [Compound 41] were greater than 8.00 and 6.30 to 7.00.
For `Cc1noc(C2CCN(c3ccc(C4(C(=O)NS(=O)(=O)CC5(C)COC5)CC4)cc3)CC2)c1NC(=O)O[C@@H](C)c1ccccc1` [Compound 81] the same measures were greater than 8.00 and greater than 7.00.
As to `Cc1noc(C2CCN(c3ccc(C4(S(=O)(=O)O)CC4)cc3)CC2)c1NC(=O)O[C@H](C)c1ccccc1` [Compound 89, 1-[4-[4-[3-methyl-4-[[(1R)-1-phenylethoxy]carbonylamino]isoxazol-5-yl]-1-piperidyl]phenyl]cyclopropanesulfonic acid], the negative logarithm of the IC50 (pIC50) in experiment [1] is greater than 8.00; in experiment [2] it was 6.30 to 7.00.
Taken in the same sequence, the figures for `Cc1noc(C2CC3(C2)CN(c2ccc(C4(C(=O)NS(=O)(=O)CC(=O)O)CC4)cc2)C3)c1NC(=O)O[C@H](C)c1ccccc1` [Compound 48] were 6.70 to 8.00 and greater than 7.00.
